US10538498B2, “1,3,4-oxadiazole sulfonamide derivative compounds as histone deacetylase 6 inhibitor, and the pharmaceutical composition comprising the same” (Chong Kun Dang Pharmaceutical Corp., priority 2015, dated 2020)

Biological target: T1, human recombinant HDAC6 (Homo sapiens, UniProt Q9UBN7)
T1 construct: purchased Calbiochem 382180
T1 sequence (Q9UBN7 1-1215): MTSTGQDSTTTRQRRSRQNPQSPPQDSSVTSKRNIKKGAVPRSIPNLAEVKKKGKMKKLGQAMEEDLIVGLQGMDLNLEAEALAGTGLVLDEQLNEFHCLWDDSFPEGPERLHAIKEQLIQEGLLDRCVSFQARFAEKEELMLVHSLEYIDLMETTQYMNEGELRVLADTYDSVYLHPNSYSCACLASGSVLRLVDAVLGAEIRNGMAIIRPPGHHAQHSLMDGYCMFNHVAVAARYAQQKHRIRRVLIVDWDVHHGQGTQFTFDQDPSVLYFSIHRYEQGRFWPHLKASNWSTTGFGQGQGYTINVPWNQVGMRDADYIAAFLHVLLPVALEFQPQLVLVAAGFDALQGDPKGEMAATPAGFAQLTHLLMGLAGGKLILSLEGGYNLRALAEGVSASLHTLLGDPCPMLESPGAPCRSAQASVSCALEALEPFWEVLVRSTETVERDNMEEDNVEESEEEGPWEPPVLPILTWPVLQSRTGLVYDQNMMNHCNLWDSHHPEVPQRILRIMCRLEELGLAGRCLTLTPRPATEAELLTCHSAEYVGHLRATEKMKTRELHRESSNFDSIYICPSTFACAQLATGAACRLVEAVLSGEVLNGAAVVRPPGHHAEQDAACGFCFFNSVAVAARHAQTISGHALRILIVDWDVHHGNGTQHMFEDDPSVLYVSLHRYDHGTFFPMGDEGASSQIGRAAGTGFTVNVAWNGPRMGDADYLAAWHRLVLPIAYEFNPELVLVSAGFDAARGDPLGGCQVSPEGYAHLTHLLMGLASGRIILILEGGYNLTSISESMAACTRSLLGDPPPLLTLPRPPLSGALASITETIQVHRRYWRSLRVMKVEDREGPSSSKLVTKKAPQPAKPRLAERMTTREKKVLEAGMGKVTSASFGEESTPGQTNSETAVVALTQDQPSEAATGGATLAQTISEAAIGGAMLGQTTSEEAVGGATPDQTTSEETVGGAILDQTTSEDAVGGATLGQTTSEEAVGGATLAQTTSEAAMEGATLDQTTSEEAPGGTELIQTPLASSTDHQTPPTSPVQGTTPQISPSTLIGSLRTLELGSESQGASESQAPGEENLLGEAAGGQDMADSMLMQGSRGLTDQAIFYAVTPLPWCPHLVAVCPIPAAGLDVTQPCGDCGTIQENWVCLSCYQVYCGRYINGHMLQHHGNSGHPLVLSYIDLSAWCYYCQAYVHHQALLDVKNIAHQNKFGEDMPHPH
Assay: HDAC6 enzyme activity inhibition assay (HDAC Fluorimetric Drug Discovery Kit)
Assay type: biochemical
Settings: for HDAC6 selectivity (fold): HDAC1 vs HDAC6; for IC50: same protocol as the HDAC1 enzyme activity test
Summary of the method: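 Both isoforms are run by an identical fluorimetric protocol: deacetylation of 10 μM Fluor de Lys-SIRT1 substrate by 0.3 μg recombinant enzyme over 60 min at 30° C, in the presence of 5-fold compound dilutions. Signal is developed for 30 min and read at Ex 360/Em 460 to derive IC50.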

| SMILES | HDAC6 selectivity (fold) | IC50 [nM] |
| --- | --- | --- |
| CS(=O)(=O)N(Cc1ccc(-c2nnc(C(F)F)o2)cc1F)c1ccc(Cl)cc1 [Compound 11281, N-(4-chlorophenyl)-N-(4-(5-(difluoromethyl)-1,3,4-oxadiazol-2-yl)-2-fluorobenzyl)methanesulfonamide] | 2273 | 44 |
| CS(=O)(=O)N(Cc1ccc(-c2nnc(C(F)F)o2)cn1)c1cccc(F)c1 [Compound 11217, N-((5-(5-(difluoromethyl)-1,3,4-oxadiazol-2-yl)pyridin-2-yl)methyl)-N-(3-fluorophenyl)methanesulfonamide] | 7692 | 13 |
| O=S(=O)(CCN1Cc2ccccc2C1)N(Cc1ccc(-c2nnc(C(F)F)o2)cc1)c1ccccc1 [Compound 11756, N-(4-(5-(difluoromethyl)-1,3,4-oxadiazol-2-yl)benzyl)-2-(isoindolin-2-yl)-N-phenylethane-1-sulfonamide] | 264 | 378 |
| CC(=O)N1CCCN(CCS(=O)(=O)N(Cc2ccc(-c3nnc(C(F)F)o3)cc2)c2ccccc2)CC1 [Compound 11759, 2-(4-acetyl-1,4-diazepan-1-yl)-N-(4-(5-(difluoromethyl)-1,3,4-oxadiazol-2-yl)benzyl)-N-phenylethane-1-sulfonamide] | 984 | 102 |
| CS(=O)(=O)N(Cc1ccc(-c2nnc(C(F)F)o2)cc1F)C1CCCCC1 [Compound 11292, N-cyclohexyl-N-(4-(5-(difluoromethyl)-1,3,4-oxadiazol-2-yl)-2-fluorobenzyl)methanesulfonamide] | 1786 | 56 |
| Cc1nn(C)c2ccc(N(Cc3ccc(-c4nnc(C(F)F)o4)cc3)S(C)(=O)=O)cc12 [Compound 11746, N-(4-(5-(difluoromethyl)-1,3,4-oxadiazol-2-yl)benzyl)-N-(1,3-dimethyl-1H-indazol-5-yl)methanesulfonamide] | 784 | 127 |
| CS(=O)(=O)N1CCN(CCS(=O)(=O)N(Cc2ccc(-c3nnc(C(F)F)o3)cc2F)c2ccc(F)c(Cl)c2)CC1 [Compound 11554, N-(3-chloro-4-fluorophenyl)-N-(4-(5-(difluoromethyl)-1,3,4-oxadiazol-2-yl)-2-fluorobenzyl)-2-(4-(methylsulfonyl)piperazin-1-yl)ethane-1-sulfonamide] | 4348 | 23 |
| CN1CCN(CCCS(=O)(=O)N(Cc2ccc(-c3nnc(C(F)F)o3)cc2)c2ccccc2)CC1 [Compound 11658, N-(4-(5-(difluoromethyl)-1,3,4-oxadiazol-2-yl)benzyl)-3-(4-methylpiperazin-1-yl)-N-phenylpropane-1-sulfonamide] | 2500 | 40 |
| O=S(=O)(CCn1cnc(CO)c1)N(Cc1ccc(-c2nnc(C(F)F)o2)cc1)c1ccccc1 [Compound 11808, N-(4-(5-(difluoromethyl)-1,3,4-oxadiazol-2-yl)benzyl)-2-(4-(hydroxymethyl)-1H-imidazol-1-yl)-N-phenylethane-1-sulfonamide] | 2881 | 34.7 |
| O=S(=O)(CCCN1CCCCC1)N(Cc1ccc(-c2nnc(C(F)F)o2)cc1)c1ccccc1 [Compound 11657, N-(4-(5-(difluoromethyl)-1,3,4-oxadiazol-2-yl)benzyl)-N-phenyl-3-(piperidin-1-yl)propane-1-sulfonamide] | 1219 | 82 |
| CC(C)(C)OC(=O)N1CCC(N(Cc2ccc(-c3nnc(C(F)F)o3)cc2F)S(C)(=O)=O)CC1 [Compound 11338, tert-butyl 4-(N-(4-(5-(difluoromethyl)-1,3,4-oxadiazol-2-yl)-2-fluorobenzyl)methylsulfonamido)piperidine-1-carboxylate] | 195 | 513 |
| CN1CCN(CCCS(=O)(=O)N(Cc2ccc(-c3nnc(C(F)F)o3)cc2F)c2ccccc2)CC1 [Compound 11589, N-(4-(5-(difluoromethyl)-1,3,4-oxadiazol-2-yl)-2-fluorobenzyl)-3-(4-methylpiperazin-1-yl)-N-phenylpropane-1-sulfonamide] | 2326 | 43 |
| CS(=O)(=O)N1CC(N2CCN(CCS(=O)(=O)N(Cc3ccc(-c4nnc(C(F)F)o4)cc3F)c3ccc(F)c(Cl)c3)CC2)C1 [Compound 11582, N-(3-chloro-4-fluorophenyl)-N-(4-(5-(difluoromethyl)-1,3,4-oxadiazol-2-yl)-2-fluorobenzyl)-2-(4-(1-(methylsulfonyl)azetidin-3-yl)piperazin-1-yl)ethane-1-sulfonamide] | 4348 | 23 |
| CS(=O)(=O)N(Cc1ccc(-c2nnc(C(F)(F)F)o2)cc1F)c1cccc(F)c1 [Compound 11181, N-(2-fluoro-4-(5-(trifluoromethyl)-1,3,4-oxadiazol-2-yl)benzyl)-N-(3-fluorophenyl)methanesulfonamide] | 3030 | 33 |
| O=S(=O)(CCN1CCCN(Cc2ccccc2)CC1)N(Cc1ccc(-c2nnc(C(F)F)o2)cc1)c1ccccc1 [Compound 11760, 2-(4-benzyl-1,4-diazepan-1-yl)-N-(4-(5-(difluoromethyl)-1,3,4-oxadiazol-2-yl)benzyl)-N-phenylethane-1-sulfonamide] | 508 | 197 |
| O=S(=O)(C1CCN([C@H]2CC[C@@H](F)CC2)CC1)N(Cc1ccc(-c2nnc(C(F)F)o2)cc1)c1cccc(Cl)c1 [Compound 11726, N-(3-chlorophenyl)-N-(4-(5-(difluoromethyl)-1,3,4-oxadiazol-2-yl)benzyl)-1-((1s,4s)-4-fluorocyclohexyl)piperidine-4-sulfonamide] | 782 | 128 |
| CS(=O)(=O)N(Cc1ccc(-c2nnc(C(F)F)o2)cc1F)c1cccc(Br)c1 [Compound 11197, N-(3-bromophenyl)-N-(4-(5-(difluoromethyl)-1,3,4-oxadiazol-2-yl)-2-fluorobenzyl)methanesulfonamide] | 6667 | 15 |
| CC(C)N1CC(N2CCC(S(=O)(=O)N(Cc3ccc(-c4nnc(C(F)F)o4)cc3)c3cccc(Cl)c3)CC2)C1 [Compound 11778, N-(3-chlorophenyl)-N-(4-(5-(difluoromethyl)-1,3,4-oxadiazol-2-yl)benzyl)-1-(1-isopropylazetidin-3-yl)piperidine-4-sulfonamide] | 2724 | 36.7 |
| CCS(=O)(=O)N(Cc1ccc(-c2nnc(C(F)F)o2)cc1F)c1cccc(CN2CCN(C(C)=O)CC2)c1 [Compound 11403, N-(3-((4-acetylpiperazin-1-yl)methyl)phenyl)-N-(4-(5-(difluoromethyl)-1,3,4-oxadiazol-2-yl)-2-fluorobenzyl)ethanesulfonamide] | 1282 | 78 |
| CCN1CCC(S(=O)(=O)N(Cc2ccc(-c3nnc(C(F)F)o3)cn2)c2ccccc2)CC1 [Compound 11368, N-((5-(5-(difluoromethyl)-1,3,4-oxadiazol-2-yl)pyridin-2-yl)methyl)-1-ethyl-N-phenylpiperidine-4-sulfonamide] | 6667 | 15 |
| CS(=O)(=O)N(Cc1ccc(-c2nnc(C(F)F)o2)cc1F)c1ccc2c(c1)OCO2 [Compound 11227, N-(benzo[d][1,3]dioxol-5-yl)-N-(4-(5-(difluoromethyl)-1,3,4-oxadiazol-2-yl)-2-fluorobenzyl)methanesulfonamide] | 4348 | 23 |
| CC(C)n1ncc2ccc(N(Cc3ccc(-c4nnc(C(F)F)o4)cc3)S(C)(=O)=O)cc21 [Compound 11742, N-(4-(5-(difluoromethyl)-1,3,4-oxadiazol-2-yl)benzyl)-N-(1-isopropyl-1H-indazol-6-yl)methanesulfonamide] | 418 | 239 |
| NC(=O)[C@H]1CCCN1CCS(=O)(=O)N(Cc1ccc(-c2nnc(C(F)F)o2)cc1)c1ccccc1 [Compound 11813, (R)-1-(2-(N-(4-(5-(difluoromethyl)-1,3,4-oxadiazol-2-yl)benzyl)-N-phenylsulfamoyl)ethyl)pyrrolidine-2-carboxamide] | 2932 | 34.1 |
